Measurements taken from US10780069B2, “Use of GC-1 in transplant related population” (University of Pittsburgh—Of the Commonwealth System of …, priority 2017, dated 2020).
Entries after “also recorded” stand apart in the source; their conditions may differ.

Key:
[1] = system: preneoplastic hepatocytes; settings: resistant-hepatocyte model of hepatocarcinogenesis (T3, rats); Ledda-Columbano 2000, Perra 2009; cited from earlier work
hepatocytes [2] = assay: Daily IP injections of GC-1 in wild type C57BL/6 mice: hepatocyte proliferation, β-catenin activation, cyclin-D1; assay type: in vivo; settings: vs DMSO control
Method: (§1) All studies on mice were performed in strict accordance with Guidelines. Eight-week old male C57BL/6 male mice (Jackson/Charles River) were maintained on a standard laboratory basal diet (Test Diet) (n=4), or fed a T3-supplemented diet (4 mg/Kg of diet, Sigma Chemicals, St. Louis Mo.) (n=4). GC-1 was administered to the eight week-old male C57BL/6 male mice either via GC-1-supplemented diet (5 mg/Kg of diet, Medchem Express) for 8 days (n=4) or via daily intraperitoneal injections (IP) of GC-1 dissolved in DMSO (0.3 mg/kg/dose) for 8 days (n=7). As a control group for injections, DMSO alone was injected daily intraperitoneal (IP) for 8 days (n=5). Mice were sacrificed 24 hours after the last injection.
(§2) To label dividing hepatocytes, BrdU (5-bromodeoxyuridine) dissolved in drinking water (1 mg/ml) was given to all animals throughout the experiment period. The animals were given food and water ad libitum with a 12-hour light/dark daily cycle.
(§3) Four micron liver sections were analyzed by immunohistochemistry for β-Catenin (BD Biosciences, San Jose, Calif.), Cyclin-D1 (Thermo-Scientific, Fremont, Calif.) and PCNA (Santa Cruz Biotechnology, Dallas, Tex.). Briefly, formalin-fixed sections were deparaffinized in graded xylene and alcohol. Endogenous peroxidase was inactivated using 3% hydrogen peroxide (Sigma). For β-Catenin, Cyclin-D1 staining, slides were microwaved in Citrate buffer followed by blocking with Superblock for 10 minutes. Sections were then incubated with secondary anti-mouse (for β-catenin) or anti-rabbit (for Cyclin-D1) horseradish peroxidase-conjugated antibody for 30 minutes.
For PCNA, slides were microwaved in zinc sulfate for 12 minutes, followed by blocking with Superblock for 20 minutes. Sections were incubated with PCNA antibody (Santa Cruz) diluted 1:4,000 in phosphate buffered saline (PBS) for 60 minutes. Slides then incubated with horse anti-mouse secondary antibody (1:700 dilution) for 30 minutes. ABC was applied for 30 minutes. DAB kit was then applied. Slides were then dehydrated, coverslips placed, and allowed to dry.
(§4) Bromodeoxyuridine (BrdU) was stained with mouse antibody (Becton Dickinson) as previously described (Fanti et al. (2014) Hepatology 59, 2309-2320). Briefly, tissue sections were deparaffinized, exposed to 0.3% hydrogen peroxide in deionized water for 10 minutes to block endogenous peroxidase, treated with 2N HCl, incubated with trypsin 0.1% for 20 minutes and then with normal goat serum for 20 minutes at room temperature. Sections were then incubated overnight in cold room with anti-BrdU monoclonal antibody, followed by biotinylated goat anti-mouse IgG. DAB kit was then applied, and sections were counterstained with hematoxylin. A small segment of intestine was included from each mouse as a positive control for the staining. For quantification of BrdU staining, at least 10 high power fields (400× or 600×) fields each from at least three biological replicates were counted as indicated in the figures. Statistical analysis was performed as described below.
Protein extraction from frozen liver tissue and western blot analysis were performed as previously described (Fanti et al., (2014) Hepatology 59, 2309-2320). For protein extraction, a small amount of frozen liver tissue was obtained (over dry ice) and was homogenized using RIPA buffer with protease and phosphatase inhibitor cocktail (Sigma, St. Louis, Mo.). Samples were transferred to a 1.5 ml tube on ice, and spun in cold room centrifuge at 14,000 RPM for 5 minutes. […]

[3] = system: β-catenin-TCF4 reporter activity in HepG2 cells (exon-3-deletion mutant of CTNNB1); assay: TopFlash reporter assay in HepG2 cells; assay type: cell-based, human; settings: (methods: 5-7 μM, 24 hours), vs DMSO
Excerpt: Three liver tumor cell lines Hep3B, HepG2 and Snu-398 cells were obtained from ATCC (Manassas, Va.). Cells were transfected simultaneously with Renilla reniformis luciferase (pRL-TK; Promega, Madison, Wis.) as a transfection control and TopFlash firefly luciferase plasmids (Upstate Biotechnology, Lake Placid, N.Y.), which contains three copies of the Tcf/Lef sites upstream of a thymidine kinase (TK) promoter and the firefly luciferase gene using Lipofectamine 2000 (Life Technologies). Twenty-four hours after transfection, cells were treated with either DMSO (Fisher Scientific) or 5-7 μM GC-1 (Medchem Express, Monmouth Junction, N.J.) for 24 hours. Lysates were harvested using the Dual-Luciferase Reporter Assay System (Promega, Madison, Wis.). Firefly luciferase signals were normalized to Renilla luciferase and ratio between groups compared by student's t-test to determine significance. P<0.05 was considered significant.

hepatocytes [4] = assay: T3- or GC-1-supplemented diet in wild type mice: hepatocyte proliferation; assay type: in vivo
Method: as §1, §2, §3, §4

hepatocytes [5] = assay: GC-1 or T3 in hepatocyte specific β-catenin knockout mice (β-Cat LKO) and littermate controls; assay type: in vivo; settings: control mice, GC-1 treated vs basal diet

Cc1cc(OCC(=O)O)cc(C)c1Cc1ccc(O)c(C(C)C)c1 [GC-1, Sobetirome]
effect on preneoplastic lesions / carcinogenic process [1]: negatively influence the carcinogenic process | PCNA-positive hepatocytes and BrdU incorporation (hepatocyte proliferation) (hepatocytes [2]; GC-1 0.3 mg/Kg/dose daily IP in DMSO, 8 days, 0.3 mg/kg): increased number of PCNA-positive hepatocytes as well as BrdU incorporation; also recorded: increased proliferation | P-Ser675-β-catenin level, Western blot of whole liver lysates (hepatocytes [2]; GC-1 0.3 mg/Kg/dose daily IP): increased | cyclin-D1 immunohistochemistry (hepatocytes [2]; GC-1 0.3 mg/Kg/dose daily IP): many positive hepatocytes | cyclin-D1 level, Western blot of whole liver lysates (hepatocytes [2]; GC-1 0.3 mg/Kg/dose daily IP): increased | total β-catenin level, Western blot (hepatocytes [2]; GC-1 0.3 mg/Kg/dose daily IP): did not show much difference | TopFlash luciferase reporter activity [3]: no significant effect; also recorded: insignificant differences | hepatocyte proliferation relative to T3 (hepatocytes [4]; GC-1 diet versus T3 diet, 8 days): modestly less extent than T3 | BrdU incorporation (hepatocytes [4]; T3 (4 mg/Kg of diet) or GC-1 (5 mg/Kg of diet) chow 8 days, vs basal diet): increased BrdU incorporation | cyclin-D1 staining in hepatocytes (hepatocytes [4]; T3 diet or IP GC-1, 8 days, vs respective controls): notably increased cyclin-D1 staining | cyclin-D1 staining in hepatocytes (hepatocytes [4]; T3 or GC-1 supplemented diet 8 days, vs basal diet): increased in both groups | BrdU-positive hepatocytes, T3 diet versus IP GC-1 (hepatocytes [4]; T3 supplemented diet versus IP GC-1, 8 days, p<0.001 between groups): overall fewer number of BrdU-positive hepatocytes | active-β-catenin, Western blot (hepatocytes [5]): notable increase
